Test: Inhibition of HIV-1 gp120/CD4 interaction

C[C@@H]1CN(C(=O)c2ccccc2)CCN1C(=O)C(=O)c1c[nH]c2ccccc12
EC50: 4 nM

Reference: ChEMBL document CHEMBL3351853, “Discovery of small molecular inhibitors targeting HIV-1 gp120-CD4 interaction drived from BMS-378806” (Eur J Med Chem, 2014)
